# In publication PMC9848300, “Discovery of novel enasidenib analogues targeting inhibition of mutant isocitrate dehydrogenase 2 as antileukaemic agents” (Journal of Enzyme Inhibition and Medicinal Chemistry, 2023):
# Like-named read-outs stand apart in the source and are kept apart here.
# Key:
# MDA-MB-468 = test: NCI 60 antitumor screening (single dose / five doses); format: cell-based; conditions: Homo sapiens
# ACHN = test: as above; format: cell-based; conditions: Homo sapiens, read-out: Growth inhibition percentage (GI %)
# SW-620 = test: as above; format: cell-based, human; conditions: Homo sapiens
# DU-145 = test: as above; format: cell-based; conditions: Homo sapiens
# EKVX = test: as above; format: cell-based; conditions: Homo sapiens, read-out: Growth inhibition percentage (GI %)
# RXF 393 = test: as above; format: cell-based; conditions: Homo sapiens
# IGROV1 = test: as above; format: cell-based; conditions: Homo sapiens
# HOP-92 = test: as above; format: cell-based; conditions: Homo sapiens
# SK-MEL-5 = test: as above; format: cell-based; conditions: Homo sapiens
# SF-539 = test: as above; format: cell-based; conditions: Homo sapiens
# SK-MEL-28 = test: as above; format: cell-based; conditions: Homo sapiens
# SR = test: as above; format: cell-based; conditions: Homo sapiens, read-out: Growth inhibition percentage (GI %)
# A498 = test: as above; format: cell-based; conditions: Homo sapiens
# MDA-MB-435 = test: as above; format: cell-based; conditions: Homo sapiens
# NCI/ADR-RES = test: as above; format: cell-based; conditions: Homo sapiens, read-out: Growth inhibition percentage (GI %)
# SNB-75 = test: as above; format: cell-based; conditions: Homo sapiens
# MDA-MB-231/ATCC = test: as above; format: cell-based; conditions: Homo sapiens
# UACC-62 = test: as above; format: cell-based; conditions: Homo sapiens
# SK-OV-3 = test: NCI 60 antitumor screening (single dose); format: cell-based; conditions: Homo sapiens
# In short: (§1)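 NCI-60 one-dose screen. Dose: 10 μM. Lines: 60 human tumour lines, nine tissue types. Output: GI% = 100 − G%.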
# NCI-H460 = test: NCI 60 antitumor screening (single dose); format: cell-based; conditions: Homo sapiens; NCI-H460 (non-small cell lung cancer), single dose 10 μM; read-out: Growth inhibition percentage (GI %)
# In short: as §1
# PC-3 = test: NCI 60 antitumor screening (single dose); format: cell-based; conditions: Homo sapiens
# In short: (§2)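 Assessment used the first tier of the NCI 60 screen, one dose of 10 μM per compound. Triplicate experiments gave percent growth of treated cells. Inhibition was then derived as 100 − G%.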
# HS 578T = test: NCI 60 antitumor screening (single dose); format: cell-based; conditions: Homo sapiens, read-out: Growth inhibition percentage (GI %)
# In short: as §2
# SN 12C = test: NCI 60 antitumor screening (single dose / five doses); format: cell-based; conditions: Homo sapiens, SN12C, read-out: Growth inhibition percentage (GI %)
# HT29 = test: as above; format: cell-based, human; conditions: Homo sapiens
# CCRF-CEM = test: as above; format: cell-based; conditions: Homo sapiens, read-out: Growth inhibition percentage (GI %)
# UACC-257 = test: as above; format: cell-based; conditions: Homo sapiens
# MALME-3M = test: as above; format: cell-based; conditions: Homo sapiens, read-out: Growth inhibition percentage (GI %)
# COLO 205 = test: as above; format: cell-based; conditions: Homo sapiens
smiles,measurement,setting,value
"O=[N+]([O-])c1cc(/C=N/Nc2nc(N/N=C/c3ccc(Cl)c([N+](=O)[O-])c3)nc(N3CCOCC3)n2)ccc1Cl [compound 6i, 2,4-Bis[(E)-2-[(4-Chloro-3-nitrophenyl)methylidene]hydrazin-1-yl]-6-(morpholin-4-yl)-1,3,5-triazine]",inhibition at 10 µM,"MDA-MB-468; MDA-MB-468, read-out: Growth inhibition percentage (GI %)",27.1%
same,inhibition at 10 µM,ACHN; ACHN,-2.76%
same,inhibition at 10 µM,"SW-620; SW-620, read-out: Growth inhibition percentage (GI %)",-6.94%
same,inhibition at 10 µM,"DU-145; DU-145, read-out: Growth inhibition percentage (GI %)",-11.3%
same,inhibition at 10 µM,EKVX; EKVX,0.07%
same,inhibition at 10 µM,"RXF 393; RXF 393, read-out: Growth inhibition percentage (GI %)",-20.7%
same,inhibition at 10 µM,"IGROV1; IGROV-1, read-out: Growth inhibition percentage (GI %)",7.34%
same,inhibition at 10 µM,"HOP-92; HOP-92, read-out: Growth inhibition percentage (GI %)",-20.3%
same,inhibition at 10 µM,"SK-MEL-5; SK-MEL-5, read-out: Growth inhibition percentage (GI %)",3.31%
same,inhibition at 10 µM,"SF-539; SF-539, read-out: Growth inhibition percentage (GI %)",6.38%
same,inhibition at 10 µM,"SK-MEL-28; SK-MEL-28, read-out: Growth inhibition percentage (GI %)",-4.35%
same,inhibition at 10 µM,SR; SR,18.5%
same,inhibition at 10 µM,"A498; A498, read-out: Growth inhibition percentage (GI %)",-10.3%
same,inhibition at 10 µM,"MDA-MB-435; MDA-MB-435, read-out: Growth inhibition percentage (GI %)",-7.52%
same,inhibition at 10 µM,NCI/ADR-RES; NCI/ADR-RES,-0.3%
same,inhibition at 10 µM,"SNB-75; SNB-75, read-out: Growth inhibition percentage (GI %)",-7.64%
same,inhibition at 10 µM,"MDA-MB-231/ATCC; MDA-MB-231, read-out: Growth inhibition percentage (GI %)",3.16%
same,inhibition at 10 µM,"UACC-62; UACC-62, read-out: Growth inhibition percentage (GI %)",9.59%
same,inhibition at 10 µM,"SK-OV-3; SK-OV-3, read-out: Growth inhibition percentage (GI %)",-22.5%
same,inhibition at 10 µM,NCI-H460,-1.58%
same,inhibition at 10 µM,"PC-3; PC-3, read-out: Growth inhibition percentage (GI %)",-0.63%
same,inhibition at 10 µM,HS 578T; Hs-578T,-5.27%
same,inhibition at 10 µM,SN 12C,9.02%
same,inhibition at 10 µM,"HT29; HT-29, read-out: Growth inhibition percentage (GI %)",-2.29%
same,inhibition at 10 µM,CCRF-CEM; CCRF-CEM,12.2%
same,inhibition at 10 µM,"UACC-257; UACC-257, read-out: Growth inhibition percentage (GI %)",-2.78%
same,inhibition at 10 µM,MALME-3M; Malme-3M,-29.9%
same,inhibition at 10 µM,"COLO 205; COLO 205, read-out: Growth inhibition percentage (GI %)",-4.66%
"Oc1ccc(/C=N/Nc2nc(N/N=C/c3ccc(O)c(O)c3)nc(N3CCOCC3)n2)cc1O [compound 6j, 4-[(1e)-(2-{4-[(E)-2-[(3,4-Dihydroxyphenyl)methylidene]hydrazin-1-yl]-6-(morpholin-4-yl)-1,3,5-triazin-2-yl}hydrazin-1-ylidene)methyl]benzene-1,2-diol]",inhibition at 10 µM,"MDA-MB-468; MDA-MB-468 (breast cancer), single dose 10 μM, read-out: Growth inhibition percentage (GI %)",6.49%
same,inhibition at 10 µM,"ACHN; ACHN (renal cancer), single dose 10 μM",-1.32%
same,inhibition at 10 µM,"SW-620; SW-620 (colon cancer), single dose 10 μM, read-out: Growth inhibition percentage (GI %)",-3.6%
same,inhibition at 10 µM,"DU-145; DU-145 (prostate cancer), single dose 10 μM, read-out: Growth inhibition percentage (GI %)",-5.37%
same,inhibition at 10 µM,"EKVX; EKVX (non-small cell lung cancer), single dose 10 μM",5.31%
same,inhibition at 10 µM,"RXF 393; RXF 393 (renal cancer), single dose 10 μM, read-out: Growth inhibition percentage (GI %)",-20.4%
same,inhibition at 10 µM,"IGROV1; IGROV-1, IGROV1 (ovarian cancer), single dose 10 μM, read-out: Growth inhibition percentage (GI %)",-6.08%
same,inhibition at 10 µM,"HOP-92; HOP-92 (non-small cell lung cancer), single dose 10 μM, read-out: Growth inhibition percentage (GI %)",-7.35%
same,inhibition at 10 µM,"SK-MEL-5; SK-MEL-5 (melanoma), single dose 10 μM, read-out: Growth inhibition percentage (GI %)",2.65%
same,inhibition at 10 µM,"SF-539; SF-539 (CNS cancer), single dose 10 μM, read-out: Growth inhibition percentage (GI %)",-3.18%
same,inhibition at 10 µM,"SK-MEL-28; SK-MEL-28 (melanoma), single dose 10 μM, read-out: Growth inhibition percentage (GI %)",-2.58%
same,inhibition at 10 µM,"SR; SR (leukaemia), single dose 10 μM",8.3%
same,inhibition at 10 µM,"A498; A498 (renal cancer), single dose 10 μM, read-out: Growth inhibition percentage (GI %)",2.87%
same,inhibition at 10 µM,"MDA-MB-435; MDA-MB-435 (melanoma), single dose 10 μM, read-out: Growth inhibition percentage (GI %)",-3.12%
same,inhibition at 10 µM,"NCI/ADR-RES; NCI/ADR-RES (ovarian cancer), single dose 10 μM",-5.32%
same,inhibition at 10 µM,"SNB-75; SNB-75 (CNS cancer), single dose 10 μM, read-out: Growth inhibition percentage (GI %)",-1.54%
same,inhibition at 10 µM,"MDA-MB-231/ATCC; MDA-MB-231/ATCC (breast cancer), single dose 10 μM, read-out: Growth inhibition percentage (GI %)",1.27%
same,inhibition at 10 µM,"UACC-62; UACC-62 (melanoma), single dose 10 μM, read-out: Growth inhibition percentage (GI %)",2.19%
same,inhibition at 10 µM,"SK-OV-3; SK-OV-3 (ovarian cancer), single dose 10 μM, read-out: Growth inhibition percentage (GI %)",-7.04%
same,inhibition at 10 µM,NCI-H460,-7.99%
same,inhibition at 10 µM,"PC-3; PC-3 (prostate cancer), single dose 10 μM, read-out: Growth inhibition percentage (GI %)",-5.8%
same,inhibition at 10 µM,"HS 578T; HS 578T (breast cancer), single dose 10 μM",-5.42%
same,inhibition at 10 µM,"SN 12C; SN 12C (renal cancer), single dose 10 μM",0.16%
same,inhibition at 10 µM,"HT29; HT-29, HT29 (colon cancer), single dose 10 μM, read-out: Growth inhibition percentage (GI %)",-12%
same,inhibition at 10 µM,"CCRF-CEM; CCRF-CEM (leukaemia), single dose 10 μM",-2.09%
same,inhibition at 10 µM,"UACC-257; UACC-257 (melanoma), single dose 10 μM, read-out: Growth inhibition percentage (GI %)",-3.12%
same,inhibition at 10 µM,"MALME-3M; MALME-3M (melanoma), single dose 10 μM",-4.04%
same,inhibition at 10 µM,"COLO 205; COLO 205 (colon cancer), single dose 10 μM, read-out: Growth inhibition percentage (GI %)",-7.11%
